Numbers after ± are expanded uncertainties.
Assay: xn = mol fraction of the nth substance listed
Conditions: 101 kPa, Liquid; for viscosity: Capillary tube (Ostwald / Ubbelohde) method; for speed of sound: Sing-around technique in a fixed-path interferometer

CCCCCCCCO [octan-1-ol] + CCCCCC
Conditions	mass density, 298.15 K [kg/m3]	mass density, 303.15 K [kg/m3]	mass density, 308.15 K [kg/m3]	speed of sound, 298.15 K [m/s]	speed of sound, 303.15 K [m/s]	speed of sound, 308.15 K [m/s]	viscosity, 298.15 K [mPa·s]
x1 = 0.0651	668.557 ± 0.89	663.926 ± 0.89	659.735 ± 0.9	1090.1 ± 1.1	1068.1 ± 1.1	1046.3 ± 1.1	0.358 ± 0.007
x1 = 0.1109	677.728 ± 0.87	673.192 ± 0.87	668.685 ± 0.88	1100 ± 1.1	1078.1 ± 1.1	1056.6 ± 1.1	0.409 ± 0.007
x1 = 0.1511	685.618 ± 0.85	681.095 ± 0.86	676.641 ± 0.86	1109.9 ± 1.1	1089.3 ± 1.1	1066.9 ± 1.1	0.444 ± 0.007
x1 = 0.2052	695.979 ± 0.83	691.566 ± 0.83	687.129 ± 0.84	1123.8 ± 1.1	1102.7 ± 1.1	1081.6 ± 1.1	0.53 ± 0.007
x1 = 0.2699	708.106 ± 0.8	703.843 ± 0.81	699.426 ± 0.82	1142.3 ± 1.1	1121.4 ± 1.1	1099.9 ± 1	0.654 ± 0.008
x1 = 0.3016	713.929 ± 0.79	709.692 ± 0.8	705.291 ± 0.8	1150.4 ± 1	1129.8 ± 1	1109.3 ± 1	0.725 ± 0.008
x1 = 0.4013	731.693 ± 0.75	727.596 ± 0.76	723.487 ± 0.77	1178.7 ± 1	1158.8 ± 1	1138.9 ± 1	1.023 ± 0.009
x1 = 0.5059	749.508 ± 0.71	745.544 ± 0.72	741.544 ± 0.73	1209.1 ± 1	1189.6 ± 1	1170.3 ± 1	1.477 ± 0.012
x1 = 0.6014	765.032 ± 0.67	761.168 ± 0.68	757.276 ± 0.69	1237 ± 1	1218.1 ± 1	1199.2 ± 0.9	2.057 ± 0.015
x1 = 0.7083	781.504 ± 0.63	777.748 ± 0.64	773.973 ± 0.65	1268.1 ± 0.9	1249.8 ± 0.9	1231.4 ± 0.9	2.954 ± 0.019
x1 = 0.7967	794.381 ± 0.6	790.775 ± 0.61	787.028 ± 0.62	1293.2 ± 0.9	1275.3 ± 0.9	1257.6 ± 0.9	3.977 ± 0.025
x1 = 0.8463	801.415 ± 0.59	797.955 ± 0.59	794.319 ± 0.6	1307.2 ± 0.9	1289.7 ± 0.9	1272.1 ± 0.9	4.666 ± 0.029
x1 = 0.9154	810.757 ± 0.56	807.483 ± 0.57	803.632 ± 0.58	1326.1 ± 0.9	1308.4 ± 0.9	1291.3 ± 0.9	5.802 ± 0.034
x1 = 0.9401	814.039 ± 0.56	810.851 ± 0.56	807.169 ± 0.57	1332.7 ± 0.9	1315.5 ± 0.9	1298.5 ± 0.8	6.264 ± 0.036
x1 = 1	821.813 ± 0.54	818.796 ± 0.54	815.286 ± 0.55	1348 ± 0.8	1330.8 ± 0.8	1314.1 ± 0.8	7.508 ± 0.042

CCCCCCCCO [octan-1-ol] + CCCCCCCC
Conditions	mass density, 298.15 K [kg/m3]	mass density, 303.15 K [kg/m3]	mass density, 308.15 K [kg/m3]	speed of sound, 298.15 K [m/s]	speed of sound, 303.15 K [m/s]	speed of sound, 308.15 K [m/s]	viscosity, 298.15 K [mPa·s]
x1 = 0.0548	705.04 ± 0.76	700.957 ± 0.76	696.852 ± 0.77	1177.6 ± 0.8	1156.9 ± 0.8	1136.7 ± 0.8	0.554 ± 0.007
x1 = 0.1078	711.299 ± 0.74	707.298 ± 0.75	703.23 ± 0.76	1183.3 ± 0.8	1162.8 ± 0.8	1142.7 ± 0.8	0.621 ± 0.007
x1 = 0.1526	716.736 ± 0.73	712.733 ± 0.74	708.68 ± 0.75	1189.2 ± 0.8	1168.9 ± 0.8	1148.9 ± 0.8	0.679 ± 0.007
x1 = 0.2019	722.796 ± 0.72	718.79 ± 0.73	714.754 ± 0.74	1196 ± 0.8	1175.9 ± 0.8	1156.1 ± 0.8	0.762 ± 0.008
x1 = 0.2516	728.888 ± 0.71	724.91 ± 0.72	720.901 ± 0.73	1203.4 ± 0.8	1183.5 ± 0.8	1163.6 ± 0.8	0.839 ± 0.008
x1 = 0.3075	735.75 ± 0.7	731.816 ± 0.71	727.826 ± 0.71	1212.2 ± 0.8	1192.3 ± 0.8	1172.8 ± 0.8	0.965 ± 0.009
x1 = 0.4055	747.852 ± 0.68	743.986 ± 0.69	740.044 ± 0.69	1228 ± 0.8	1208.9 ± 0.8	1189.7 ± 0.8	1.222 ± 0.01
x1 = 0.5031	759.965 ± 0.66	756.131 ± 0.66	752.284 ± 0.67	1245.5 ± 0.8	1226.6 ± 0.8	1207.7 ± 0.8	1.569 ± 0.011
x1 = 0.602	772.269 ± 0.63	768.472 ± 0.64	764.683 ± 0.65	1263.9 ± 0.8	1245.2 ± 0.8	1227 ± 0.8	2.091 ± 0.014
x1 = 0.7158	786.456 ± 0.6	782.773 ± 0.61	779.057 ± 0.62	1286.9 ± 0.8	1268.7 ± 0.8	1250.9 ± 0.8	2.991 ± 0.019
x1 = 0.803	797.369 ± 0.58	793.787 ± 0.59	790.122 ± 0.6	1305.6 ± 0.8	1287.7 ± 0.8	1270.1 ± 0.8	3.986 ± 0.024
x1 = 0.8501	803.36 ± 0.57	799.76 ± 0.58	796.133 ± 0.58	1315.7 ± 0.8	1297.9 ± 0.8	1280.6 ± 0.8	4.652 ± 0.028
x1 = 0.8959	808.907 ± 0.56	805.579 ± 0.57	801.983 ± 0.57	1325.7 ± 0.8	1308.1 ± 0.8	1290.9 ± 0.8	5.399 ± 0.032
x1 = 0.9509	815.733 ± 0.55	812.572 ± 0.55	809.022 ± 0.56	1337.5 ± 0.8	1320.2 ± 0.8	1303.2 ± 0.8	6.441 ± 0.037
x1 = 1	821.813 ± 0.54	818.796 ± 0.54	815.286 ± 0.55	1348 ± 0.8	1330.8 ± 0.8	1314.1 ± 0.8	7.508 ± 0.042

CCCCCCCCO [octan-1-ol] + CCCCCCCCCC
Conditions	mass density, 298.15 K [kg/m3]	mass density, 303.15 K [kg/m3]	mass density, 308.15 K [kg/m3]	speed of sound, 298.15 K [m/s]	speed of sound, 303.15 K [m/s]	speed of sound, 308.15 K [m/s]	viscosity, 298.15 K [mPa·s]
x1 = 0.0507	730.551 ± 1.6	726.796 ± 1.6	722.969 ± 1.6	1236.4 ± 2.9	1216.3 ± 2.9	1196.8 ± 2.9	0.896 ± 0.015
x1 = 0.1199	735.871 ± 1.5	732.137 ± 1.5	728.314 ± 1.5	1240.1 ± 2.8	1220.5 ± 2.8	1201.1 ± 2.8	0.978 ± 0.016
x1 = 0.1532	738.514 ± 1.4	734.755 ± 1.4	730.923 ± 1.4	1242.2 ± 2.7	1222.7 ± 2.7	1203.4 ± 2.7	1.026 ± 0.016
x1 = 0.2085	742.997 ± 1.3	739.255 ± 1.3	735.427 ± 1.3	1246.3 ± 2.6	1226.8 ± 2.6	1207.5 ± 2.6	1.121 ± 0.016
x1 = 0.2654	747.773 ± 1.3	744.007 ± 1.3	740.195 ± 1.3	1250.8 ± 2.4	1231.7 ± 2.4	1212.6 ± 2.4	1.233 ± 0.017
x1 = 0.3097	751.578 ± 1.2	747.791 ± 1.2	743.987 ± 1.2	1254.8 ± 2.3	1235.6 ± 2.3	1216.6 ± 2.3	1.33 ± 0.018
x1 = 0.4009	759.689 ± 1.1	755.863 ± 1.1	752.086 ± 1.1	1263.5 ± 2.1	1244.6 ± 2.1	1225.9 ± 2.1	1.579 ± 0.019
x1 = 0.5041	769.261 ± 0.97	765.532 ± 0.97	761.703 ± 0.97	1274.7 ± 1.9	1256 ± 1.9	1237.4 ± 1.9	1.958 ± 0.021
x1 = 0.6069	779.261 ± 0.85	775.493 ± 0.86	771.782 ± 0.86	1287.2 ± 1.6	1268.7 ± 1.6	1250.5 ± 1.6	2.49 ± 0.023
x1 = 0.7244	791.228 ± 0.74	787.587 ± 0.74	783.929 ± 0.75	1303.1 ± 1.4	1285 ± 1.4	1267.4 ± 1.4	3.381 ± 0.028
x1 = 0.7505	793.993 ± 0.72	790.368 ± 0.72	786.721 ± 0.73	1306.9 ± 1.3	1288.9 ± 1.3	1271.5 ± 1.3	3.642 ± 0.029
x1 = 0.804	799.684 ± 0.67	796.157 ± 0.68	792.558 ± 0.68	1315.2 ± 1.2	1297.5 ± 1.2	1279.9 ± 1.2	4.231 ± 0.031
x1 = 0.8958	809.826 ± 0.6	806.478 ± 0.61	802.907 ± 0.61	1330.1 ± 1	1312.7 ± 1	1295.6 ± 1	5.521 ± 0.036
x1 = 0.9544	816.493 ± 0.56	813.314 ± 0.57	809.765 ± 0.58	1339.9 ± 0.9	1322.9 ± 0.9	1305.9 ± 0.9	6.563 ± 0.039
x1 = 1	821.813 ± 0.54	818.796 ± 0.54	815.286 ± 0.55	1348 ± 0.8	1330.8 ± 0.8	1314.1 ± 0.8	7.508 ± 0.042

Source: the NIST ThermoML archive (doi:10.1016/j.jct.2008.02.005)
